Measured values taken from patent publication US10986837B2, “Lactam solubility” (Conopco, Inc., priority 2015, dated 2021).

Experiments:
[1] = produced by Rhodococcus erythropolis grown on n-alkane; cited from earlier work
[2] = Lactam solubility in bio-surfactant solutions (48 h agitation, filtration, HPLC); format: physicochemical
Protocol: Bio-surfactant solutions at the levels shown in the results below were prepared for screening. The maximum level tested was dictated by the solubility of the surfactant in water. The following representative example uses 4-(4-chlorophenyl)-5-methylene-pyrrol-2-one.
Solid lactam was weighed into Whatman® Mini Uniprep sample vials, fitted with a 0.45 μm nylon filter (2.7 to 3.3 mg per vial). 50 μL of a solvent solution was placed into each sample vial, the vial capped and shaken briefly by hand to agitate the solid, then placed on a Thermo Labsystems Wellmix® plate shaker and continuously agitated for 48 hours. After this time, the excess solid in the vial was removed using the integral filter membrane and the resultant solution analysed by HPLC to determine the level of dissolved lactam.
Samples were analysed using an Agilent 1200® series HPLC fitted with a Hypersil Gold C18 column (15×2.1×3 μm), using isocratic elution with 60/40 methanol/water (+0.1% Formic Acid) at a flow rate of 0.4 mL/min, using a DAD detector at 285 nm. 4-(4-Chlorophenyl)-5-methylene-pyrrol-2-one has a retention time of ˜2.8 minutes.
Each test surfactant solution was tested in triplicate and the mean value of lactam in solution calculated. Values of solubility were quoted as the improvement in aqueous solubility vs water alone (i.e. mean level of lactam dissolved in water+solvent/mean level of lactam dissolved in water) to allow comparison between screens conducted on different days.

[3] = Additive Di-rhamnolipid R2, 0% in water (water alone)
[4] = Additive Di-rhamnolipid R2, 0.1% in water
[5] = Additive Di-rhamnolipid R2, 0.5% in water
[6] = Additive Di-rhamnolipid R2, 1% in water
[7] = Additive Di-rhamnolipid R2, 2% in water
[8] = Additive Mono-rhamnolipid R1, 0% in water (water alone)
[9] = Additive Mono-rhamnolipid R1, 0.1% in water
[10] = Additive Mono-rhamnolipid R1, 0.5% in water
[11] = Additive Mono-rhamnolipid R1, 1% in water
[12] = Additive Mono-rhamnolipid R1, 2% in water
[13] = Additive Mono-rhamnolipid R1, 4% in water

In the case of Phosphatidylethanolamine, the CMC [1] is listed as 30 mg/L and the “interfacial tension between water and hexadecane” value [1] is listed as “less than 1 mN m^−1”.
With `C=C1NC(=O)C=C1c1ccc(Cl)cc1` [4-(4-chlorophenyl)-5-methylene-pyrrol-2-one] the “Mean Lactam Level in Solution” value [2, 3] was 2.7 ppm, the “Solubility Increase vs water alone” value [2, 3] was 1.0 and the “Mean Lactam Level in Solution” value [2, 4] was 15.2 ppm. For the same molecule, the “Solubility Increase vs water alone” value [2, 4] was 5.7, the “Mean Lactam Level in Solution” value [2, 5] was 42.6 ppm and the “Solubility Increase vs water alone” value [2, 5] was 15.9. For the same molecule, the “Mean Lactam Level in Solution” value [2, 6] was 77.5 ppm, the “Solubility Increase vs water alone” value [2, 6] was 28.9 and the “Mean Lactam Level in Solution” value [2, 7] was 139.6 ppm. The “Solubility Increase vs water alone” value [2, 7] was 52.1, the “Mean Lactam Level in Solution” value [2, 8] was 2.7 ppm and the “Solubility Increase vs water alone” value [2, 8] was 1.0. The “Mean Lactam Level in Solution” value [2, 9] was 10.9 ppm, the “Solubility Increase vs water alone” value [2, 9] was 4.1 and the “Mean Lactam Level in Solution” value [2, 10] was 39.3 ppm. For the same molecule, the “Solubility Increase vs water alone” value [2, 10] was 14.7, the “Mean Lactam Level in Solution” value [2, 11] was 75.3 ppm and the “Solubility Increase vs water alone” value [2, 11] was 28.1. The “Mean Lactam Level in Solution” value [2, 12] was 149.7 ppm, the “Solubility Increase vs water alone” value [2, 12] was 55.9 and the “Mean Lactam Level in Solution” value [2, 13] was 194.8 ppm. For the same molecule, the “Solubility Increase vs water alone” value [2, 13] was 72.7.
